For five compounds, IC50, DC50 and Dmax results are on record in patent US20260167622A1, “PAN-KRAS DEGRADING AGENT, AND PREPARATION METHOD THEREFOR AND USE THEREOF” (LEADINGTAC PHARMACEUTICAL (SHAOXING) CO., LTD., priority 2022, published 2026).

Structures are written as SMILES.

One assay addresses T1, Human KRAS G12V (Homo sapiens, UniProt P01116, G12V).
T1 construct: purchased PerkinElmer
The assay is described as follows: KRAS-G12V/GTP binding assay (HTRF kit). The settings on record: 25° C., 1 h. On the procedure:
Test Example 2: KRAS G12V Binding Assay
In this method, the inhibitory effects of the compounds on the binding of KRAS G12V to GTP were assayed by a homogeneous time-resolved fluorescence (HTRF) technique using a KRAS-G12V/GTP binding assay kit (PerkinElmer).
The experimental procedures were as follows (refer to the kit instructions for detailed test methods): the compounds of the present disclosure were each firstly dissolved in DMSO at a concentration of 20 mM, and then diluted in an equal gradient with a buffer in the kit, so that the final concentrations of the test compounds in the reaction system were in a range of 0.02-5000 nM, and the final concentration of DMSO was 0.5%. 5 μL of each compound was incubated with 5 μL of 1× Human KRAS G12V 6His-tagged (PerkinElmer), 5 µL of 1×6His Eu Cryptate Antibody (PerkinElmer), and 5 μL of 1×GTP Red reagent (PerkinElmer) in a 384-well plate (Greiner) at 25° C. for 1 h. After the incubation was completed, the fluorescence intensity of each well was measured at the excitation wavelength of 337 nm and the emission wavelengths of 620 nm and 665 nm with an EnVision microplate reader (PerkinElmer) in the HTRF mode, and Ratio values were calculated using the formula: Ratio=(665 nm/620 nm)×10^4. The inhibition rates of the compounds at each concentration were calculated by comparing the fluorescence intensity ratio with that of the control group. Then non-linear curve fittings for logarithmic concentration-inhibition rate were performed using the GraphPad Prism 8 analysis software, and the IC50 values of the compounds were obtained (Table 3).

Assay [1] addresses T2, KRAS G12V protein in SW900 cells (Homo sapiens, UniProt P01116, G12V).
T2 construct: endogenous in cells; host or cells: SW900
The assay is described as follows: KRAS degradation assay (Western Blot) in SW900 cells. The class given is cell-based. The settings on record: 24 h. A digest of the protocol: (§1)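 5×10^5 cells/well; cpd 0.03–3000 nM final, 0.25% DMSO, 24 h, 37 °C/5% CO2. RIPA lysis, 5 µg protein/lane, anti-KRAS WB, β-actin loading ref. DC50/Dmax by nonlinear fit.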

The target of assay [2] is T3, KRAS G12V protein in SW620 cells (Homo sapiens, UniProt P01116, G12V).
T3 construct: endogenous in cells; host or cells: SW620
T3 sequence (P01116 1-188 isoform P01116-2 G12V): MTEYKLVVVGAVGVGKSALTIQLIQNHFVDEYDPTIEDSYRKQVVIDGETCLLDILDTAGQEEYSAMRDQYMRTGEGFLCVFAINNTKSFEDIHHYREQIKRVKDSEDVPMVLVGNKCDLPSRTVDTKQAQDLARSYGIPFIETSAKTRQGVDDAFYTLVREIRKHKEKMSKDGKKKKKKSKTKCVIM
The assay is described as follows: KRAS degradation assay (Western Blot) in SW620 cells. The class given is cell-based. A digest of the protocol: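 Compounds were added at final concentrations of 0.03–3000 nM (0.25% DMSO) to overnight-plated cells and left for 24 h. Lysates, equalised by BCA, were immunoblotted for KRAS and β-actin, and DC50 and Dmax were derived from normalised band intensities relative to control.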

For assay [3], the target named is T4, KRAS WT (expanded) protein in MKN1 cells (Homo sapiens, UniProt P01116).
T4 construct: endogenous in cells; host or cells: MKN1 (MKN-1)
T4 sequence (P01116 1-188 isoform P01116-2): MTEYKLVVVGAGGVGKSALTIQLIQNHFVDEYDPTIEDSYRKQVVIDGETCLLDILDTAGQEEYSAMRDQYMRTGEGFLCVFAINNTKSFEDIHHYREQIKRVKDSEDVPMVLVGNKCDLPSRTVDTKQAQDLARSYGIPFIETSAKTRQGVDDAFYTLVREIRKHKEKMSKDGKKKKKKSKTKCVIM
The assay is described as follows: KRAS degradation assay (Western Blot) in MKN1 cells. The assay is classed as cell-based. An excerpt: (§2) Test Example 5: KRAS G12C, KRAS G12D, KRAS G12V, KRAS G13D, and KRAS WT (Expanded) Degradation Assays
(§3) The degradation effect of the compounds on KRAS was investigated on KRAS G12C mutant human non-small cell lung cancer cell NCI-H358, KRAS G12D mutant human metastatic pancreatic cancer cell AsPc-1, KRAS G12D mutant human lung cancer cell A427, KRAS G12V mutant human colorectal cancer cell SW620, KRAS G12V mutant human lung cancer cell SW900, KRAS G13D mutant human colorectal cancer epithelial cell DLD-1, and KRAS WT human gastric cancer cell MKN-1. The specific procedures were as follows: 0.95 mL of cells were seeded into each well of a 24-well cell culture plate to achieve a cell density of 5×10^5 cells/well; and the cell plate was incubated in an incubator at 37° C. with 5% CO2 overnight. Then 50 μL of the compound solution after dilution was added to each of the wells with the corresponding cells, so that the final concentration of the compound was in a range of 0.03-3000 nM. The final concentration of DMSO was 0.25%. After the compounds were added, the cell plate was incubated in an incubator at 37° C. with 5% CO2 for 24 h. The culture medium in the 24-well cell culture plate was then removed, and the plate was washed twice with 1×PBS (KeyGEN). 120 μL of RIPA (strong) lysis buffer (Beyotime) (supplemented with 1 mM phenylmethylsulfonyl fluoride, a protease inhibitor mixture (Beyotime), and a protease phosphatase inhibitor mixture (Beyotime)) was added to lyse adherent SW900 cells at the bottom of the cell culture plate. After the plate was left to stand on ice for 30 min, the protein lysate in each well was transferred to a 1.5 mL centrifuge tube and centrifuged at 15000 g for 20 min at 4° C. The cell lysate supernatants after centrifugation were cryopreserved in a refrigerator at −80° C. for later use.
(§4) After the samples of the cell lysate supernatants that had been prepared were thawed from the refrigerator at −80° C., the total protein concentrations of the cell lysates were determined using a BCA protein quantification kit (Tiangen). The total protein concentrations of the samples were then adjusted to 0.5 μg/μL with PBS and 5×SDS-PAGE protein loading buffer (Beyotime), and the samples were incubated in a water bath at 100° C. for 15 min. The samples were then incubated in an ice bath for 5 min and centrifuged at 14000 g for 1 min at 4° C., and the supernatants were mixed well as loading samples for the Western Blot assay. The samples were loaded into wells of a 10% precast gel (KeyGEN) with a loading volume of 10 μL (total protein: 5 μg), a sufficient Tris-MOPS-SDS running buffer (Adamas) was added, and then electrophoresis was performed at a constant voltage of 120 V for 55 min. After the electrophoresis, the proteins on the gel were transferred to PVDF membranes at a constant current of 250 mA for 55 min. After the membrane transfer, the PVDF membranes were incubated in 1× Quick Block blocking buffer (Beyotime)at room temperature for 30 min. After the blocking, the PVDF membranes were separately incubated at 4° C. overnight with the KRAS antibody (Abcam) diluted in a ratio of 1:1000 and the β-actin antibody (Abcam) diluted in a ratio of 1:2000 in 5% BSA as the diluent, and then washed with 1×TBST buffer (2.4 g of Tris, 8.8 g of NaCl, 1.5 mL of Tween 20, with pH adjusted to 7.4, with the volume brought to 1 L) 3 times for 10 min/time. The membranes were incubated with a secondary antibody (Abcam) diluted in 5% BSA at room temperature for 2 h, and then washed with 1×TBST buffer 3 times for 10 min/time. Finally, the membranes were incubated with Clarity Western ECL Substrate (BIO-RAD) for 5 min for luminescence and color development, and a ChemiScope 6200 Touch chemiluminescence imaging system (Clinx) was used for color development and protein mapping. Gray value analysis of the protein maps was performed using the chemiluminescence analysis software (Clinx). […]

Assay [4] addresses T5, KRAS G12C protein in NCI-H358 cells (Homo sapiens, UniProt P01116, G12C).
T5 construct: endogenous in cells; host or cells: NCI-H358
The assay is described as follows: KRAS degradation assay (Western Blot) in NCI-H358 cells. The class given is cell-based. The settings on record: 24 h.
Description: as §2, §3, §4

The target in assay [5] is T6, KRAS G13D protein in DLD-1 cells (Homo sapiens, UniProt P01116, G13D).
T6 construct: endogenous in cells; host or cells: DLD-1
T6 sequence (P01116 1-188 isoform P01116-2 G13D): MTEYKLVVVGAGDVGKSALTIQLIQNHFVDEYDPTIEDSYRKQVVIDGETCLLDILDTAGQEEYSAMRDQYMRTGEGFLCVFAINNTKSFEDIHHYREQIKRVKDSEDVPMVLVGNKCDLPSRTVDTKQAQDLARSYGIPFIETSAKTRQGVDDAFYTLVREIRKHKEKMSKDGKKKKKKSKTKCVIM
The assay is described as follows: KRAS degradation assay (Western Blot) in DLD-1 cells. The class given is cell-based. The settings on record: 24 h. In outline: as §1

Assay [6] addresses T7, KRAS G12D protein in AsPc-1 cells (Homo sapiens, UniProt P01116, G12D).
T7 construct: endogenous in cells; host or cells: AsPc-1
The assay is described as follows: KRAS degradation assay (Western Blot) in AsPc-1 cells. The class given is cell-based. In outline:
as §1

The subject of assay [7] is KRAS G12D mutant human metastatic pancreatic cancer cell AsPc-1. The assay is described as follows: 3D cell proliferation inhibition assay, AsPc-1. The class given is cell-based. The settings on record: ASPC1, 168 h, 3D culture, 7 days, CTG. A digest of the protocol:
(§5)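 Cells seeded in low-adsorption plates at 5×10^2 cells/well (MKN1 1×10^3) with compounds at final 10000–0.026 nM, 0.2% DMSO, 3D culture 7 days at 37 °C. Viability by CellTiter-Glo luminescence; inhibition normalised to DMSO and medium-only controls, IC50 from nonlinear log-concentration fit.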

Assay [8] relates to KRAS G12C mutant human non-small cell lung cancer cell NCI-H358. The assay is described as follows: 3D cell proliferation inhibition assay, NCI-H358. The class given is cell-based. The settings on record: NCI-H358, 168 h, 3D culture, 7 days, CTG. In outline:
as §5

In assay [9] the test system is KRAS G12V mutant human colorectal cancer cell SW620. The assay is described as follows: 3D cell proliferation inhibition assay, SW620. The class given is cell-based. The settings on record: SW-620, 168 h, 3D culture, 7 days, CTG. A digest of the protocol: as §5
Assay [10] deals with KRAS G13D mutant human colorectal cancer epithelial cell DLD-1. The assay is described as follows: 3D cell proliferation inhibition assay, DLD-1. The settings on record: DLD-1, 168 h, 3D culture, 7 days, CTG. The assay is classed as cell-based. A digest of the protocol:
as §5

Assay [11] relates to KRAS WT human gastric cancer cell MKN1. The assay is described as follows: 3D cell proliferation inhibition assay, MKN1. The settings on record: MKN-1, 168 h, 3D culture, 7 days, CTG. The class given is cell-based. In outline:
as §5

T1 sequence (P01116 1-188 isoform P01116-2 G12V): as the sequence (P01116 1-188 isoform P01116-2 G12V) above
T2 sequence (P01116 1-188 isoform P01116-2 G12V): as above
T7 sequence (P01116 1-188 isoform P01116-2 G12D): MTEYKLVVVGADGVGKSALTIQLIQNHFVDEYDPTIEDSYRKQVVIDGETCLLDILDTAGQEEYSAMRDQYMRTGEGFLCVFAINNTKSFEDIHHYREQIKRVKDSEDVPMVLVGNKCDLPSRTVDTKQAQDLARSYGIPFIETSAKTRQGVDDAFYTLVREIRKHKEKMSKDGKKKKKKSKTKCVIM
T5 sequence (P01116 1-188 isoform P01116-2 G12C): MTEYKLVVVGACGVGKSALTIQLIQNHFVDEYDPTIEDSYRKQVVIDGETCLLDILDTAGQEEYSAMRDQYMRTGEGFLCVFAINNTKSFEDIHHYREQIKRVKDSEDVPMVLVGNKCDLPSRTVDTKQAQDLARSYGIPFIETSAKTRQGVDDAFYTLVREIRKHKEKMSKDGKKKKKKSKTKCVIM

The compound `C#Cc1c(F)ccc2cc(O)cc(-c3ncc4c(N5CCC[C@@](C)(O)C5)nc(OCC5(CN6CCC7(CC6)CCN(C(=O)c6ccc(Cl)c(N8CCC(=O)NC8=O)c6)CC7)CC5)nc4c3F)c12` [Example 16, (R)-1-(2-chloro-5-(9-((1-(((7-(8-ethynyl-7-fluoro-3-hydroxynaphthalen-1-yl)-8-fluoro-4-(3-hydroxy-3-methylpiperidin-1-yl)pyrido[4,3-d]pyrimidin-2-yl)oxy)methyl)cyclopropyl)methyl)-3,9-diazaspiro[5.5]undecane-3-carbonyl)phenyl)dihydropyrimidine-2,4(1H,3H)-dione] returned an IC50 at Human KRAS G12V of at most 500 nM.
For the compound `C#Cc1c(F)ccc2cc(O)cc(-c3ncc4c(N5CCC[C@@](C)(O)C5)nc(OCC5(CN6CCN(C(=O)c7ccc(Cl)c(N8CCC(=O)NC8=O)c7)CC6)CC5)nc4c3F)c12` [Example 15, (R)-1-(2-chloro-5-(4-((1-(((7-(8-ethynyl-7-fluoro-3-hydroxynaphthalen-1-yl)-8-fluoro-4-(3-hydroxy-3-methylpiperidin-1-yl)pyrido[4,3-d]pyrimidin-2-yl)oxy)methyl)cyclopropyl)methyl)piperazine-1-carbonyl)phenyl)dihydropyrimidine-2,4(1H,3H)-dione], at Human KRAS G12V, the IC50 was at most 500 nM.
In turn, `Cc1ccc(C(=O)N2CCC3(CCC(CN4CCN(CC5(COc6nc(N7CCC[C@@](C)(O)C7)c7cnc(-c8cc(O)cc(Cl)c8C8CC8)c(F)c7n6)CC5)CC4)CC3)CC2)cc1N1CCC(=O)NC1=O` [Example 40, (R)-1-(5-(9-((4-((1-(((7-(3-chloro-2-cyclopropyl-5-hydroxyphenyl)-8-fluoro-4-(3-hydroxy-3-methylpiperidin-1-yl)pyrido[4,3-d]pyrimidin-2-yl)oxy)methyl)cyclopropyl)methyl)piperazin-1-yl)methyl)-3-azaspiro[5.5]undecane-3-carbonyl)-2-methylphenyl)dihydropyrimidine-2,4(1H,3H)-dione] showed an IC50 at Human KRAS G12V of 500 to 1000 nM. Further, in [1], the DC50 was at most 50 nM and the Dmax is 80 to 100%.
The like results for `C#Cc1c(F)ccc2cc(O)cc(-c3ncc4c(N5CCC[C@@](C)(O)C5)nc(OCC56CC(CN7CCN(CC8CCC9(CC8)CCN(C(=O)c8ccc(C)c(N%10CCC(=O)NC%10=O)c8)CC9)CC7)(C5)C6)nc4c3F)c12` [Example 14, (R)-1-(5-(9-((4-((3-(((7-(8-ethynyl-7-fluoro-3-hydroxynaphthalen-1-yl)-8-fluoro-4-(3-hydroxy-3-methylpiperidin-1-yl)pyrido[4,3-d]pyrimidin-2-yl)oxy)methyl)bicyclo[1.1.1]pent-1-yl)methyl)piperazin-1-yl)methyl)-3-azaspiro[5.5]undecane-3-carbonyl)-2-methylphenyl)dihydropyrimidine-2,4(1H,3H)-dione] were, in that order, at most 500 nM, at most 50 nM and 50 to 80%.
For `[2H]C([2H])([2H])Oc1ccc(C(=O)N2CCC3(CCC(CN4CCN(CC5(COc6nc(N7CCC[C@@](C)(O)C7)c7cnc(-c8cc(O)cc9ccc(F)c(C#C)c89)c(F)c7n6)CC5)CC4)CC3)CC2)cc1N1CCC(=O)NC1=O` [Example 170, (R)-1-(5-(9-((4-((1-(((7-(8-ethynyl-7-fluoro-3-hydroxynaphthalen-1-yl)-8-fluoro-4-(3-hydroxy-3-methylpiperidin-1-yl)pyrido[4,3-d]pyrimidin-2-yl)oxy)methyl)cyclopropyl)methyl)piperazin-1-yl)methyl)-3-azaspiro[5.5]undecane-3-carbonyl)-2-(methoxy-d3)phenyl)dihydropyrimidine-2,4(1H,3H)-dione], the DC50 in assay [2] (24 h) was determined as 2.35 nM; in [3] (24 h) it was 0.76 nM; in assay [4], 2.65 nM; in assay [5] it was 1.96 nM; in [6] (24 h), 5.53 nM. In addition, the Dmax stood at 97.7% in [2] (SW-620, 24 h); 99.3% in assay [3] (MKN-1, 24 h); 96.1% in [4]; 99.9% in [5]; 100% in [6] (ASPC1, 24 h). The IC50 was 6.31 nM in [7]; 2.49 nM in assay [8]; 2.59 nM in assay [9]; 6.28 nM in [10]; 6.7 nM in assay [11].
